#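 Compound exposure: 48 hours, 5 concentrations, 96-well plates. TGI is the concentration that stops growth completely.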
# Assays:
# Experiment in all cases: DTP human tumour cell line panel, 48 h
# OVCAR-4 ovarian = test system: OVCAR-4 ovarian
# ACHN renal = test system: ACHN renal
# SK-MEL-28 melanoma = test system: SK-MEL-28 melanoma
# TK-10 renal = test system: TK-10 renal
# A549 NSCLC = test system: A549 NSCLC
# T-47D breast = test system: T-47D breast
# HCT-116 colon = test system: HCT-116 colon
# NCI-H460 lung = test system: NCI-H460 lung
# BT-549 breast = test system: BT-549 breast
# MDA-MB-435 = test system: MDA-MB-435
# MCF7 breast = test system: MCF7 breast
# SR leukemia = test system: SR leukemia
# HOP-62 NSCLC = test system: HOP-62 NSCLC
# EKVX NSCLC = test system: EKVX NSCLC
# SK-MEL-5 melanoma = test system: SK-MEL-5 melanoma
# HS 578T breast = test system: HS 578T breast
# K-562 leukemia = test system: K-562 leukemia
# SN12C renal = test system: SN12C renal
# UO-31 renal = test system: UO-31 renal
# SNB-19 CNS = test system: SNB-19 CNS
# UACC-62 melanoma = test system: UACC-62 melanoma
# HCC-2998 colon = test system: HCC-2998 colon
# NCI-H23 lung = test system: NCI-H23 lung
# M14 melanoma = test system: M14 melanoma
# A498 renal = test system: A498 renal
# HOP-92 NSCLC = test system: HOP-92 NSCLC
# RPMI-8226 leukemia = test system: RPMI-8226 leukemia
# UACC-257 melanoma = test system: UACC-257 melanoma
# NCI/ADR-RES ovarian = test system: NCI/ADR-RES ovarian
# NCI-H226 lung = test system: NCI-H226 lung
# SF-539 CNS = test system: SF-539 CNS
# SF-295 CNS = test system: SF-295 CNS
# OVCAR-8 ovarian = test system: OVCAR-8 ovarian
# OVCAR-3 ovarian = test system: OVCAR-3 ovarian
# IGROV1 ovarian = test system: IGROV1 ovarian
# COLO 205 colon = test system: COLO 205 colon
# DU-145 prostate = test system: DU-145 prostate
# PC-3 prostate = test system: PC-3 prostate
# 786-0 renal = test system: 786-0 renal
# U251 CNS = test system: U251 CNS
# RXF 393 renal = test system: RXF 393 renal
# MOLT-4 leukemia = test system: MOLT-4 leukemia
# OVCAR-5 ovarian = test system: OVCAR-5 ovarian
# NCI-H522 lung = test system: NCI-H522 lung
# CAKI-1 renal = test system: CAKI-1 renal
# MALME-3M melanoma = test system: MALME-3M melanoma
# HT29 colon = test system: HT29 colon
# KM12 colon = test system: KM12 colon
# SK-OV-3 ovarian = test system: SK-OV-3 ovarian
# HL-60(TB) leukemia = test system: HL-60(TB) leukemia
# SK-MEL-2 melanoma = test system: SK-MEL-2 melanoma
# MDA-N = test system: MDA-N
# MDA-MB-231 breast = test system: MDA-MB-231 breast
# CCRF-CEM leukemia = test system: CCRF-CEM leukemia
# SF-268 CNS = test system: SF-268 CNS
# SNB-75 CNS = test system: SNB-75 CNS
# HCT-15 colon = test system: HCT-15 colon
# SW-620 colon = test system: SW-620 colon
# LOX IMVI melanoma = test system: LOX IMVI melanoma
structure (smiles),measurement,setting,value
COc1cc2c(cc1Cc1c(F)cccc1Cl)nc(-c1c(F)cccc1Cl)n2Cc1c(F)cccc1Cl,TGI,OVCAR-4 ovarian,> 100 µM
same,TGI,ACHN renal,> 100 µM
same,TGI,SK-MEL-28 melanoma,> 100 µM
same,TGI,TK-10 renal,> 100 µM
same,TGI,A549 NSCLC,> 100 µM
same,TGI,T-47D breast,59.5 µM
same,TGI,HCT-116 colon,> 100 µM
same,TGI,NCI-H460 lung,> 100 µM
same,TGI,BT-549 breast,> 100 µM
same,TGI,MDA-MB-435,> 100 µM
same,TGI,MCF7 breast,> 100 µM
same,TGI,SR leukemia,> 100 µM
same,TGI,HOP-62 NSCLC,75.7 µM
same,TGI,EKVX NSCLC,69.7 µM
same,TGI,SK-MEL-5 melanoma,> 100 µM
same,TGI,HS 578T breast,> 100 µM
same,TGI,K-562 leukemia,> 100 µM
same,TGI,SN12C renal,> 100 µM
same,TGI,UO-31 renal,> 100 µM
same,TGI,SNB-19 CNS,> 100 µM
same,TGI,UACC-62 melanoma,> 100 µM
same,TGI,HCC-2998 colon,76.7 µM
same,TGI,NCI-H23 lung,> 100 µM
same,TGI,M14 melanoma,> 100 µM
same,TGI,A498 renal,84 µM
same,TGI,HOP-92 NSCLC,37.6 µM
same,TGI,RPMI-8226 leukemia,> 100 µM
same,TGI,UACC-257 melanoma,> 100 µM
same,TGI,NCI/ADR-RES ovarian,> 100 µM
same,TGI,NCI-H226 lung,> 100 µM
same,TGI,SF-539 CNS,60.1 µM
same,TGI,SF-295 CNS,41.3 µM
same,TGI,OVCAR-8 ovarian,> 100 µM
same,TGI,OVCAR-3 ovarian,> 100 µM
same,TGI,IGROV1 ovarian,> 100 µM
same,TGI,COLO 205 colon,> 100 µM
same,TGI,DU-145 prostate,> 100 µM
same,TGI,PC-3 prostate,> 100 µM
same,TGI,786-0 renal,64.2 µM
same,TGI,U251 CNS,> 100 µM
same,TGI,RXF 393 renal,> 100 µM
same,TGI,MOLT-4 leukemia,> 100 µM
same,TGI,OVCAR-5 ovarian,> 100 µM
same,TGI,NCI-H522 lung,59 µM
same,TGI,CAKI-1 renal,91.3 µM
same,TGI,MALME-3M melanoma,79.9 µM
same,TGI,HT29 colon,> 100 µM
same,TGI,KM12 colon,> 100 µM
same,TGI,SK-OV-3 ovarian,70 µM
same,TGI,HL-60(TB) leukemia,> 100 µM
same,TGI,SK-MEL-2 melanoma,47.5 µM
same,TGI,MDA-N,> 100 µM
same,TGI,MDA-MB-231 breast,> 100 µM
same,TGI,CCRF-CEM leukemia,> 100 µM
same,TGI,SF-268 CNS,> 100 µM
same,TGI,SNB-75 CNS,70.4 µM
same,TGI,HCT-15 colon,> 100 µM
COC(=O)/C(C#N)=C(/NCCN)Nc1ccccc1,TGI,OVCAR-4 ovarian,> 100 µM
same,TGI,SW-620 colon,> 100 µM
same,TGI,ACHN renal,> 100 µM
same,TGI,SK-MEL-28 melanoma,> 100 µM
same,TGI,TK-10 renal,> 100 µM
same,TGI,A549 NSCLC,> 100 µM
same,TGI,T-47D breast,> 100 µM
same,TGI,HCT-116 colon,> 100 µM
same,TGI,NCI-H460 lung,> 100 µM
same,TGI,BT-549 breast,> 100 µM
same,TGI,MDA-MB-435,> 100 µM
same,TGI,MCF7 breast,> 100 µM
same,TGI,SR leukemia,> 100 µM
same,TGI,HOP-62 NSCLC,> 100 µM
same,TGI,EKVX NSCLC,> 100 µM
same,TGI,SK-MEL-5 melanoma,> 100 µM
same,TGI,HS 578T breast,> 100 µM
same,TGI,K-562 leukemia,> 100 µM
same,TGI,SN12C renal,> 100 µM
same,TGI,UO-31 renal,> 100 µM
same,TGI,SNB-19 CNS,> 100 µM
same,TGI,HCC-2998 colon,> 100 µM
same,TGI,NCI-H23 lung,> 100 µM
same,TGI,M14 melanoma,> 100 µM
same,TGI,A498 renal,> 100 µM
same,TGI,HOP-92 NSCLC,> 100 µM
same,TGI,RPMI-8226 leukemia,> 100 µM
same,TGI,UACC-257 melanoma,> 100 µM
same,TGI,NCI/ADR-RES ovarian,> 100 µM
same,TGI,NCI-H226 lung,> 100 µM
same,TGI,SF-539 CNS,> 100 µM
same,TGI,SF-295 CNS,> 100 µM
same,TGI,OVCAR-8 ovarian,> 100 µM
same,TGI,OVCAR-3 ovarian,> 100 µM
same,TGI,IGROV1 ovarian,> 100 µM
same,TGI,COLO 205 colon,> 100 µM
same,TGI,DU-145 prostate,> 100 µM
same,TGI,PC-3 prostate,> 100 µM
same,TGI,786-0 renal,> 100 µM
same,TGI,U251 CNS,> 100 µM
same,TGI,RXF 393 renal,> 100 µM
same,TGI,MOLT-4 leukemia,> 100 µM
same,TGI,OVCAR-5 ovarian,> 100 µM
same,TGI,NCI-H522 lung,> 100 µM
same,TGI,CAKI-1 renal,> 100 µM
same,TGI,MALME-3M melanoma,> 100 µM
same,TGI,HT29 colon,> 100 µM
same,TGI,SK-OV-3 ovarian,> 100 µM
same,TGI,HL-60(TB) leukemia,> 100 µM
same,TGI,LOX IMVI melanoma,> 100 µM
same,TGI,SK-MEL-2 melanoma,> 100 µM
same,TGI,MDA-N,> 100 µM
same,TGI,MDA-MB-231 breast,> 100 µM
same,TGI,SF-268 CNS,> 100 µM
same,TGI,SNB-75 CNS,> 100 µM
same,TGI,HCT-15 colon,> 100 µM

# Reference: PubChem BioAssay (NCI)
